Laboratory results: ChEMBL document CHEMBL4610017, “Discovery of 1,2,4-oxadiazole derivatives as a novel class of noncompetitive inhibitors of 3-hydroxykynurenine transaminase (HKT) from Aedes aegypti” (Bioorg Med Chem, 2020)
The source made the active and inactive calls. The rule behind the calls is not given here.

Experiments:
[1] = Inhibition of recombinant Aedes aegypti RecLab N-terminal Trx-fused/His6-tagged 3-hydroxykynurenine transaminase H360M mutant expressed in Escherichia coli Rosetta 2 (DE3) assessed as conversion of 3-hydroxy kynurenine to xanthurenic-acid using 3-D,L hydroxy kynurenine as substrate preincubated with PLP cofactor and enzyme and 30 mins later incubated with 3-D,L-HK and measured after 5 mins by microplate reader assay
[2] = Binding affinity to recombinant Aedes aegypti RecLab N-terminal Trx-fused/His6-tagged 3-hydroxykynurenine transaminase H360M mutant expressed in Escherichia coli Rosetta 2 (DE3) assessed as inhibition constant for free form of enzyme
Aedes aegypti = test: Non-competitive mixed inhibition of recombinant Aedes aegypti RecLab N-terminal Trx-fused /His6-tagged 3-hydroxykynurenine transaminase H360M mutant expressed in Escherichia coli Rosetta 2 (DE3) using varying level of 3-D,L hydroxy kynurenine as substrate by Lineweaver-Burk plot analysis
[3] = Binding affinity to recombinant Aedes aegypti RecLab N-terminal Trx-fused/His6-tagged 3-hydroxykynurenine transaminase H360M mutant expressed in Escherichia coli Rosetta 2 (DE3) assessed as inhibition constant for enzyme-substrate complex
[4] = Competitive inhibition of Anopheles gambiae 3-hydroxykynurenine transaminase

Row | IC50 [1] | SMILES | also measured
1 | 88 µM | Cc1ccc(-c2noc(CCCC(=O)O)n2)cc1 | 
2 | 72 µM | O=C(O)CCCc1nc(-c2ccccc2)no1 | Ki [2]: 360 µM; inhibition (Aedes aegypti): Active; Ki [3]: 1220 µM
3 | 70 µM | O=C(O)CCCc1nc(-c2ccc(C(F)(F)F)cc2)no1 | 
4 | 294 µM | O=C(O)CCCc1nc(-c2ccc(Cl)cc2)no1 | 
5 | 101 µM | COc1ccc(-c2noc(CCCC(=O)O)n2)cc1 | 
6 | 110 µM | O=C(O)CCCc1nc(-c2ccc(Br)cc2)no1 | 
7 | 64 µM | O=C(O)CCCc1nc(-c2ccc(Cl)c(Cl)c2)no1 | 
8 |  | Nc1ccccc1C(=O)CCC(=O)O | Ki [4]: 300 µM
9 | 63 µM | O=C(O)CCCc1nc(-c2cccc3ccccc23)no1 | 
10 | 87 µM | O=C(O)CCCc1nc(-c2ccc3c(c2)OCO3)no1 | 
11 | 42 µM | O=C(O)CCCc1nc(-c2ccc(I)cc2)no1 | 
12 | 54 µM | Cc1cccc(-c2noc(CCCC(=O)O)n2)c1 | 
